Experimental findings from patent US10526336B2, “Fused heteroaryl derivatives as orexin receptor antagonists” (Merck Sharp & Dohme Corp., priority 2014, dated 2020) are described below.

pIC50: −log10 of the molar value.

The pIC50 is the negative decadic logarithm of the IC50, by convention in mol/L.

In the test the target is human orexin-2 receptor (Homo sapiens (Human), UniProt O43614). As to the kind of experiment: FLIPR Ca2+ Flux Assay, orexin-2 receptor antagonism in CHO cells. Format: cell-based. The note with it: CHO cells expressing the human orexin-2 receptor; agonist 70 pM Ala-6,12 orexin-A; read-out: hOX2 FLIPR IC50. The method in brief: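 CHO cells expressing rat OX1R or human OX2R, Fluo-4AM loaded, given compounds for 5 min, then challenged with 70 pM Ala-6,12 human orexin-A in HBSS/HEPES/BSA/probenecid, pH 7.4. FLIPR calcium fluorescence recorded 5 min; peak height versus agonist-alone gives IC50.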
Background: Calcium assays in cells follow changes in intracellular calcium, usually with a dye or a luminescent sensor.

human orexin-2 receptor, sequence (O43614 whole entry): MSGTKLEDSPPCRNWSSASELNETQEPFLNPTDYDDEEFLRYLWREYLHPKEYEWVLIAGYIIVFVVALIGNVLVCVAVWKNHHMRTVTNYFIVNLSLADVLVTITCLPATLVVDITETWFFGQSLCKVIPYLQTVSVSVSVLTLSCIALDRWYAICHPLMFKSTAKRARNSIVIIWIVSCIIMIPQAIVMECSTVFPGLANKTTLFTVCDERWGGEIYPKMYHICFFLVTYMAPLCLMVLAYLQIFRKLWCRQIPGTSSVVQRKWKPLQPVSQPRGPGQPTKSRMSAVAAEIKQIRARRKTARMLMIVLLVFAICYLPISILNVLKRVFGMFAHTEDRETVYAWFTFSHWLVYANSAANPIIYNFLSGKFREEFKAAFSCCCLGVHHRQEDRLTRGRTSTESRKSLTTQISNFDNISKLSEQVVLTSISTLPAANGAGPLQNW

Regarding `C[C@@H]1CC[C@@H](Oc2nccn3c(C(F)F)cnc23)CN1C(=O)c1ccccc1CS(C)(=O)=O` [Example 39, ((2R,5R)-5-((3-(difluoromethyl)imidazo[1,2-a]pyrazin-8-yl)oxy)-2-methylpiperidin-1-yl)(2-((methylsulfonyl)methyl)phenyl)methanone], the pIC50 is 7.20.

Consider `C[C@@H]1CC[C@@H](Oc2nccn3nccc23)CN1C(=O)c1ccccc1C1(C#N)CC1` [Example 72, 1-(2-((2R,5R)-2-methyl-5-(pyrazolo[1,5-α]pyrazin-4-yloxy)piperidine-1-carbonyl)phenyl) cyclopropanecarbonitrile], for which the pIC50 is 7.84.

Consider `COC(=O)c1ccccc1C(=O)N1C[C@H](Oc2nccn3c(C(F)F)cnc23)CC[C@H]1C` [Example 48, methyl 2-((2R,5R)-5-((3-(difluoromethyl)imidazo[1,2-α]pyrazin-8-yl)oxy)-2-methylpiperidine-1-carbonyl)benzoate], for which the negative logarithm of the IC50 (pIC50) is 7.60.

For `Cc1cnn2ccnc(O[C@@H]3CC[C@@H](C)N(C(=O)c4ccccc4-n4nccn4)C3)c12` [Example 89, (2-(2H-1,2,3-triazol-2-yl)phenyl)((2R,5R)-2-methyl-5-((3-methylpyrazolo[1,5-a]pyrazin-4-yl)oxy)piperidin-1-yl)methanone], the pIC50 is 7.72.
